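Cells were grown in 96-well plates and exposed to each compound for 48 hours at five concentrations; endpoints were interpolated linearly between bracketing concentrations, or set to the highest concentration if not reached. Abbreviation: GI50, concentration required for 50% inhibition of growth. TGI marks complete inhibition of growth.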 The source made the active and inactive calls. No stated cut-off is given here; in the data, active means GI50 below about 0.43 µM; inactive means the rest.
Experiments:
Assay in all cases: DTP human tumour cell line panel, 48 h
[1] = tested on: ACHN renal
[2] = tested on: SK-MEL-5 melanoma
[3] = tested on: IGROV1 ovarian
[4] = tested on: SK-MEL-28 melanoma
[5] = tested on: SK-OV-3 ovarian
[6] = tested on: RPMI-8226 leukemia
[7] = tested on: HOP-92 NSCLC
[8] = tested on: NCI/ADR-RES ovarian
[9] = tested on: A549 NSCLC
[10] = tested on: HS 578T breast
[11] = tested on: HCT-116 colon
[12] = tested on: SF-295 CNS
[13] = tested on: A498 renal
[14] = tested on: NCI-H522 lung
[15] = tested on: MDA-MB-435
[16] = tested on: U251 CNS
[17] = tested on: T-47D breast
[18] = tested on: MCF7 breast
[19] = tested on: OVCAR-4 ovarian
[20] = tested on: TK-10 renal
[21] = tested on: SN12C renal
[22] = tested on: SNB-75 CNS
[23] = tested on: COLO 205 colon
[24] = tested on: NCI-H460 lung
[25] = tested on: UO-31 renal
[26] = tested on: SF-268 CNS
[27] = tested on: M14 melanoma
[28] = tested on: OVCAR-8 ovarian
[29] = tested on: 786-0 renal
[30] = tested on: NCI-H226 lung
[31] = tested on: MDA-MB-231 breast
[32] = tested on: LOX IMVI melanoma
[33] = tested on: SNB-19 CNS
[34] = tested on: MDA-N
[35] = tested on: NCI-H23 lung
[36] = tested on: UACC-62 melanoma
[37] = tested on: MALME-3M melanoma
[38] = tested on: EKVX NSCLC
[39] = tested on: SW-620 colon
[40] = tested on: CCRF-CEM leukemia
[41] = tested on: OVCAR-5 ovarian
[42] = tested on: UACC-257 melanoma
[43] = tested on: KM12 colon
[44] = tested on: SR leukemia
[45] = tested on: SK-MEL-2 melanoma
[46] = tested on: OVCAR-3 ovarian
[47] = tested on: HCC-2998 colon
[48] = tested on: HOP-62 NSCLC
[49] = tested on: K-562 leukemia
[50] = tested on: PC-3 prostate
[51] = tested on: MOLT-4 leukemia
[52] = tested on: CAKI-1 renal
[53] = tested on: SF-539 CNS
[54] = tested on: DU-145 prostate
[55] = tested on: HCT-15 colon
[56] = tested on: HT29 colon
[57] = tested on: HL-60(TB) leukemia
[58] = tested on: RXF 393 renal

## O=C1Cc2c([nH]c3ccc(Cl)cc23)-c2ccccc2N1
[1]
  TGI: > 100 µM
[2]
  TGI: > 100 µM
[3]
  TGI: > 100 µM
[4]
  TGI: > 100 µM
[5]
  TGI: > 100 µM
[6]
  TGI: > 100 µM
[7]
  TGI: > 100 µM
[8]
  TGI: > 100 µM
[9]
  TGI: > 100 µM
[10]
  TGI: > 100 µM
[11]
  TGI: > 100 µM
[12]
  TGI: > 100 µM
[13]
  TGI: > 100 µM
[14]
  TGI: > 100 µM
[15]
  TGI: > 100 µM
[16]
  TGI: > 100 µM
[17]
  TGI: > 100 µM
[18]
  TGI: > 100 µM
[19]
  TGI: > 100 µM
[20]
  TGI: > 100 µM
[21]
  TGI: > 100 µM
[22]
  TGI: > 100 µM
[23]
  TGI: > 100 µM
[24]
  TGI: > 100 µM
[25]
  TGI: > 100 µM
[26]
  TGI: > 100 µM
[27]
  TGI: > 100 µM
[28]
  TGI: > 100 µM
[29]
  TGI: > 100 µM
[30]
  TGI: > 100 µM
[31]
  TGI: > 100 µM
[32]
  TGI: > 100 µM
[33]
  TGI: > 100 µM
[34]
  TGI: > 100 µM
[35]
  TGI: > 100 µM
[36]
  TGI: > 100 µM
[37]
  TGI: > 100 µM

## C=C1C(=O)[C@@]23CC[C@@H]4[C@@]5(C)CCC[C@@]4(OC5=O)C2(C)CC[C@]1(OC)C3 (stereo not given in full)
[1]
  TGI: 3.98 µM
[2]
  TGI: 3.39 µM
[3]
  TGI: 4.76 µM
[4]
  TGI: 3.66 µM
[6]
  TGI: 0.864 µM
[8]
  TGI: 6.59 µM
[38]
  TGI: 21.8 µM
[9]
  TGI: 12.7 µM
[39]
  TGI: 3.23 µM
[10]
  TGI: 6.69 µM
[40]
  TGI: 0.436 µM
[11]
  TGI: 1.88 µM
[41]
  TGI: 3.69 µM
[12]
  TGI: 13.4 µM
[14]
  TGI: 2.36 µM
[42]
  TGI: 3.81 µM
[15]
  TGI: 3.22 µM
[43]
  TGI: 6.85 µM
[17]
  TGI: 4.6 µM
[18]
  TGI: 1.22 µM
[44]
  TGI: 1.46 µM
[20]
  TGI: 3.18 µM
[45]
  TGI: 2.58 µM
[46]
  TGI: 2.34 µM
[47]
  TGI: 1.37 µM
[21]
  TGI: 4.92 µM
[22]
  TGI: 3.07 µM
[23]
  TGI: 5.64 µM
[24]
  TGI: 6.92 µM
[25]
  TGI: 3.19 µM
[48]
  TGI: 4.56 µM
[26]
  TGI: 7.2 µM
[27]
  TGI: 4.25 µM
[49]
  TGI: 1.24 µM
[28]
  TGI: 4 µM
[29]
  TGI: 1.17 µM
[50]
  TGI: 2.44 µM
[32]
  TGI: 1.19 µM
[51]
  TGI: 1.98 µM
[33]
  TGI: 3.63 µM
[34]
  TGI: 2.02 µM
[35]
  TGI: 5.07 µM
[52]
  TGI: 3.41 µM
[53]
  TGI: 3.21 µM
[54]
  TGI: 18 µM

## CSC(N)=Nc1cccc2ccccc12
[1]
  TGI: > 10 µM
[2]
  TGI: > 10 µM
[3]
  TGI: > 10 µM
[4]
  TGI: > 10 µM
[5]
  TGI: > 10 µM
[6]
  TGI: > 10 µM
[7]
  TGI: > 10 µM
[8]
  TGI: > 10 µM
[38]
  TGI: > 10 µM
[55]
  TGI: > 10 µM
[9]
  TGI: > 10 µM
[39]
  TGI: > 10 µM
[40]
  TGI: > 10 µM
[11]
  TGI: > 10 µM
[12]
  TGI: > 10 µM
[13]
  TGI: > 10 µM
[14]
  TGI: > 10 µM
[42]
  TGI: > 10 µM
[15]
  TGI: > 10 µM
[43]
  TGI: > 10 µM
[16]
  TGI: > 10 µM
[17]
  TGI: > 10 µM
[18]
  TGI: > 10 µM
[44]
  TGI: > 10 µM
[19]
  TGI: > 10 µM
[20]
  TGI: > 10 µM
[45]
  TGI: > 10 µM
[56]
  TGI: > 10 µM
[46]
  TGI: > 10 µM
[47]
  TGI: > 10 µM
[21]
  TGI: > 10 µM
[22]
  TGI: > 10 µM
[23]
  TGI: > 10 µM
[57]
  TGI: > 10 µM
[24]
  TGI: > 10 µM
[25]
  TGI: > 10 µM
[48]
  TGI: > 10 µM
[26]
  TGI: > 10 µM
[27]
  TGI: > 10 µM
[49]
  TGI: > 10 µM
[28]
  TGI: > 10 µM
[29]
  TGI: > 10 µM
[30]
  TGI: > 10 µM
[50]
  TGI: > 10 µM
[31]
  TGI: > 10 µM
[32]
  TGI: > 10 µM
[51]
  TGI: > 10 µM
[33]
  TGI: > 10 µM
[34]
  TGI: > 10 µM
[35]
  TGI: > 10 µM
[36]
  TGI: > 10 µM
[52]
  TGI: > 10 µM
[53]
  TGI: > 10 µM
[54]
  TGI: > 10 µM
[58]
  TGI: > 10 µM
[37]
  TGI: > 10 µM

## CC(C)(NO)/C(=N\O)c1ccco1
[1]
  TGI: > 100 µM
[2]
  TGI: > 100 µM
[3]
  TGI: > 100 µM
[4]
  TGI: > 100 µM
[5]
  TGI: > 100 µM
[6]
  TGI: > 100 µM
[7]
  TGI: > 100 µM
[8]
  TGI: > 100 µM
[38]
  TGI: > 100 µM
[55]
  TGI: > 100 µM
[9]
  TGI: > 100 µM
[39]
  TGI: > 100 µM
[10]
  TGI: > 100 µM
[11]
  TGI: > 100 µM
[41]
  TGI: > 100 µM
[12]
  TGI: > 100 µM
[42]
  TGI: > 100 µM
[15]
  TGI: > 100 µM
[43]
  TGI: > 100 µM
[16]
  TGI: > 100 µM
[17]
  TGI: > 100 µM
[18]
  TGI: > 100 µM
[19]
  TGI: > 100 µM
[20]
  TGI: > 100 µM
[45]
  TGI: > 100 µM
[56]
  TGI: > 100 µM
[46]
  TGI: > 100 µM
[47]
  TGI: > 100 µM
[21]
  TGI: > 100 µM
[23]
  TGI: > 100 µM
[24]
  TGI: > 100 µM
[25]
  TGI: > 100 µM
[48]
  TGI: > 100 µM
[26]
  TGI: > 100 µM
[27]
  TGI: > 100 µM
[28]
  TGI: > 100 µM
[29]
  TGI: > 100 µM
[30]
  TGI: > 100 µM
[50]
  TGI: > 100 µM
[31]
  TGI: > 100 µM
[32]
  TGI: > 100 µM
[51]
  TGI: 40.8 µM
[33]
  TGI: > 100 µM
[34]
  TGI: > 100 µM
[35]
  TGI: > 100 µM
[36]
  TGI: > 100 µM
[52]
  TGI: > 100 µM
[53]
  TGI: > 100 µM
[54]
  TGI: > 100 µM
[58]
  TGI: > 100 µM
[37]
  TGI: > 100 µM

## O=C(O)CN1CCN(CC(=O)O)CCN(CC(=O)O)CC1
[1]
  outcome: inactive
[2]
  GI50: 6790 µM
  TGI: > 23.2 µM
[3]
  GI50: 7100 µM
[4]
  outcome: inactive
[5]
  outcome: inactive
[7]
  outcome: inactive
[8]
  TGI: > 30.9 µM
  outcome: inactive
[38]
  outcome: inactive
[55]
  GI50: 9440 µM
[9]
  GI50: 3550 µM
  TGI: > 25.4 µM
[39]
  outcome: inactive
[10]
  outcome: inactive
[40]
  TGI: > 59 µM
  outcome: inactive
[11]
  GI50: 6750 µM
[41]
  outcome: inactive
[12]
  outcome: inactive
[13]
  TGI: > 75.8 µM
  outcome: inactive
[14]
  GI50: 8060 µM
  TGI: > 70.8 µM
[42]
  GI50: 71500 µM
[15]
  outcome: inactive
[43]
  GI50: 5450 µM
[16]
  outcome: inactive
[17]
  outcome: inactive
[18]
  GI50: 6360 µM
[19]
  outcome: inactive
[20]
  GI50: 33100 µM
[45]
  GI50: 16700 µM
[56]
  GI50: 4400 µM
[21]
  outcome: inactive
[22]
  outcome: inactive
[23]
  GI50: 4770 µM
  TGI: 9.69 µM
[57]
  TGI: 4.74 µM
[24]
  GI50: 4560 µM
[25]
  outcome: inactive
[48]
  outcome: inactive
[26]
  outcome: inactive
[27]
  GI50: 10500 µM
[49]
  TGI: > 21.9 µM
[28]
  GI50: 22300 µM
  TGI: > 24.1 µM
[29]
  outcome: inactive
[30]
  outcome: inactive
[50]
  GI50: 9040 µM
[31]
  outcome: inactive
[32]
  outcome: inactive
[51]
  outcome: inactive
[33]
  outcome: inactive
[34]
  GI50: 18500 µM
[35]
  GI50: 76100 µM
[36]
  GI50: 8700 µM
[53]
  outcome: inactive
[54]
  outcome: inactive
[58]
  GI50: 9940 µM
[37]
  outcome: inactive
